pIC50: −log10 of the molar value.
Key:
human KHK-A = human KHK-A (Homo sapiens (Human), UniProt P50053); test: KHK Enzyme Activity Assay for Human KHK-A; assay type: biochemical; details: fructose 1.25 mM, ATP 150 μM; F1P production by RapidFire MS; read-out: hKHK-A IC50
Experimental: (§1) KHK Enzyme Activity Assay for Human KHK-C and Human KHK-A
(§2) The intrinsic potency for inhitibiton of KHK C or A activity may be measured using an enzymatic assay which measures the production of F1P. Compounds are prepared in DMSO and tested in a 10-point concentration curve, to create 3-fold serial dilutions of the compounds in a 96-well plate ranging from 20 μM to 1.02 nM. Enzyme is prepared in assay buffer [50 mM 4-(2-hydroxyethyl)piperazine-1-ethanesulfonic acid (HEPES), 10 mM potassium chloride, 100 mM magnesium chloride, 2 mM tris(2-carboxyethyl)phosphine (TCEP), 0.01% n-octyl glucoside] and incubated with compounds at RT for 15 min. The reaction is carried out in 100 μL volumes containing substrate concentrations of fructose (250 μM for KHK-C assay and 1.25 mM for KHK-A assay) and ATP (150 μM for both isoforms); which are further incubated at RT for 20 min. The reaction is then halted by the addition of stop buffer; consisting of 0.2% formic acid and 1 μg/ml ^13C6-fructose-6-phosphate (^13C6-F6P) internal standard. Plates are stored in −20° C. until RapidFire MS analysis.
(§3) RapidFire MS Analysis for Quantitation of F1P
(§4) An Agilent 300 RapidFire automated extraction system (Agilent, Santa Clara, CA) with three HPLC quaternary pumps is coupled to an Agilent 6495 triple quadrupole mass spectrometer (Agilent Technologies, Santa Clara, CA) equipped with an electrospray ionization (ESI) interface source. […]
(§5) Solvent A, used for sample loading and washing, is 6 mM octylamine (Acros Organics 129495000) brought to pH 5.0 using acetic acid. […] Samples are sequentially analyzed by aspirating 10 μL onto the collection loop under vacuum directly from multiwell plates. […]
(§6) The triple quadrupole mass spectrometer is equipped with an ESI source and analytes are monitored using selected reaction monitoring (SRM) in negative mode [M−H]−. F1P is monitored at m/z 259.02/96.9 and ^13C6-fructose-6-phospate is monitored at m/z 264.99/97. The area ratio values for F1P is calculated using ^13C6-fructose-6-phospate as internal standard.

human KHK-C = human KHK-C (Homo sapiens (Human), UniProt P50053); test: KHK Enzyme Activity Assay for Human KHK-C; assay type: biochemical; details: fructose 250 μM, ATP 150 μM; F1P production by RapidFire MS; read-out: hKHK-C IC50
Sequence of human KHK-C (P50053 whole entry): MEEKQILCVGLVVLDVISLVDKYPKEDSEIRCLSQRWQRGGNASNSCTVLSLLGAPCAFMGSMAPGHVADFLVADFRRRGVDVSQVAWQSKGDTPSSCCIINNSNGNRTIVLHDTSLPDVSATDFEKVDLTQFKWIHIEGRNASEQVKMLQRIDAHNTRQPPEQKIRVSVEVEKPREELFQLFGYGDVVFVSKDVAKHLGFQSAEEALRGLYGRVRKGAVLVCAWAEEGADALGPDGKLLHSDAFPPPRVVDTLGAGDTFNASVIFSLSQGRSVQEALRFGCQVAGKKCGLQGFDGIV
Experimental: as §1, §2, §3, §4, §5, §6

[1] = test system: cellular KHK in HepG2 liver cells; test: KHK Cellular Activity Assay (conversion of fructose to F1P in HepG2 liver cells); assay type: cell-based; details: Homo sapiens, 8.33 mM D-Fructose-13C6, 3 h at 37° C.
Experimental: An Agilent 300 RapidFire automated extraction system (Agilent, Santa Clara, CA) with three HPLC quaternary pumps is coupled to an Agilent 6495 triple quadrupole mass spectrometer (Agilent Technologies, Santa Clara, CA) equipped with an electrospray ionization (ESI) interface source. The RapidFire Mass Spec system is equipped with a reusable RapidFire C18 (type C) solid-phase extraction (SPE) cartridge (G9205A).
Solvent A, used for sample loading and washing, is 6 mM octylamine (Acros Organics 129495000) brought to pH 5.0 using acetic acid. Solvent B, used for sample elution, is 20% water in ACN containing 0.1% formic acid. Samples are sequentially analyzed by aspirating 10 μL onto the collection loop under vacuum directly from multiwell plates. The 10 μL of sample is loaded onto the C18 cartridge and washed using solvent A at a flow rate of 1.25 mL/min for 5000 ms. The retained analytes are then eluted to the mass spectrometer using solvent B at a flow rate of 1.25 mL/min for 5000 ms. The system is re-equilibrated using solvent A at a flow rate of 1.25 mL/min for 2000 ms.
as §6
KHK Cellular Activity Assay
Potency can be measured using a cellular assay for the inhibition of conversion of Fructose to F1P by cellular KHK. HepG2 liver cells are plated on 96-well cell culture plates in growth media [Dulbecco's Modified Eagle's medium (DMEM) high glucose, 10% heat-inactivated fetal bovine serum (HI FBS), 1×Penicillin/streptomycin] and allowed to attach overnight in a 37° C. incubator. The growth media is washed and replaced with assay media consisting of Gibco OptiMEM1 Reduced Serum Medium, 0.1% Casein, 8.33 mM D-Fructose-^13C6, and compound concentrations ranging from 100 μM to 0.0051 μM (10-point concentration curve). […]

Pharmacokinetics in Dogs = assay type: in vivo, Beagle Dogs; details: for oral bioavailability / total clearance: dog (in the rat [sic]), result in words
Experimental: (§7) Liquid Chromatograph with Tandem Mass Spectrometry (LC-MS/MS) Method for Pharmacokinetic Assays: Samples are extracted using a protein precipitation by adding 180 μL of MeOH:ACN (1:1, v/v) containing an internal standard to 50 μL of plasma. Samples are then diluted with MeOH:Water (1:1, v/v) to get concentrations within standard curve range. Diluted samples are analyzed by LC-MS/MS using a Sciex API 4000 triple quadrupole mass spectrometer (Applied Biosystems/MDS; Foster City, CA) equipped with a TurboIonSpray interface, and operated in positive ion mode. The analytes are chromatographically separated using a ECHELON C18 4 um 20×2.1 mm column. LC conditions are Water/1 M ammonium bicarbonate, (2000:10, v/v) (Mobile Phase A), and MeOH/1 M ammonium bicarbonate, (2000:10, v/v) (Mobile Phase B).
(§8) The compound is administered by a single oral (PO; 2 mg/kg; volume of 2 mL/kg) or intravenous (IV; 1 mg/kg; volume of 1 mL/kg) dose in vehicle. Blood is collected from each animal at multiple time points between 0 and up to 24 hours post-dosage. The plasma concentrations of Example 2 and Example 3 are determined by a LC-MS/MS method as described above.

[2] = Pharmacokinetics in Sprague Dawley Rats; assay type: in vivo; details: rat; for clearance / half-life / bioavailability: Sprague-Dawley, plasma, IV 1 mg/kg; for bioavailability: fasted, PO 3 mg/kg; for oral bioavailability / total clearance: result in words
Experimental: as §7
Pharmacokinetics in Sprague Dawley Rats
as §8, with “(PO; 3” for “(PO; 2”, “of 10” for “of 2”

[3] = administered for 6 weeks; subjects with non-alcoholic fatty liver disease; cited from earlier work
[4] = beagle, plasma, dog, fed, IV 1 mg/kg

Sequence of human KHK-A (P50053 other isoform, or with tags, fused parts or gaps): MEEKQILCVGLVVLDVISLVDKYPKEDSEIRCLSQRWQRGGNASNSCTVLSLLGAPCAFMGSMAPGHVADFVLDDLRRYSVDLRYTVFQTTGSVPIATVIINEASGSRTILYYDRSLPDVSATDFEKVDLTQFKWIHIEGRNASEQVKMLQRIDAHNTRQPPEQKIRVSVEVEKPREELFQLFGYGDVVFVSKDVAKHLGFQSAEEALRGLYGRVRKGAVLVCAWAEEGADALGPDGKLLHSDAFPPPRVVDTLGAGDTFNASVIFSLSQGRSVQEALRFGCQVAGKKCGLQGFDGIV

pIC50 (human KHK-A)	pIC50 (human KHK-C)	pIC50 [1]	clearance (Pharmacokinetics in Dogs; [4]) [mL/min/kg]	half-life (Pharmacokinetics in Dogs; [4]) [h]	oral bioavailability (Pharmacokinetics in Dogs)	total clearance (Pharmacokinetics in Dogs)	clearance [2] [mL/min/kg]	half-life [2] [h]	bioavailability [2] [%]	oral bioavailability [2]	total clearance [2]	half-life (Pharmacokinetics in Dogs; beagle, plasma, dog, fed, PO 2 mg/kg) [h]	bioavailability (Pharmacokinetics in Dogs; beagle, plasma, dog, fed, PO 2 mg/kg, IV 1 mg/kg) [%]	Compound	whole liver fat as measured by magnetic resonance imaging-proton density fat fraction [3]
7.67	7.65	6.04												C[C@H]1CCN1c1nc(-c2ccc(C(=O)O)cc2)cc(C(F)(F)F)n1 [Example 1, 4-{2-[(2S)-2-Methylazetidin-1-yl]-6-(trifluoromethyl)pyrimidin-4-yl}benzoic acid]	
7.90	7.64	6.73	2.15	11.3	high	low	5.57	6.42	65	high	low			C[C@H]1CCN1c1nc(-c2ccc(C(=O)N3C[C@@H](O)[C@@H](O)C3)cc2)cc(C(F)(F)F)n1 [Example 2, [(3R,4S)-3,4-Dihydroxypyrrolidin-1-yl]-[4-{2-[(2S)-2-methylazetidin-1-yl]-6-(trifluoromethyl)pyrimidin-4-yl}phenyl]methanone]	
7.63	7.53	7.09	4.77	5.07	high	low	12.7	2.95	69	high	low	4.52	~96	C[C@H]1CCN1c1nc(-c2ccc(C(=O)NC(CO)(CO)CO)cc2)cc(C(F)(F)F)n1 [Example 3, N-[2-Hydroxy-1,1-bis(hydroxymethyl)ethyl]-4-{2-[(2S)-2-methylazetidin-1-yl]-6-(trifluoromethyl)pyrimidin-4-yl}benzamide]	
														C[C@H]1CCN1c1nc(N2C[C@@H]3[C@@H](CC(=O)O)[C@@H]3C2)cc(C(F)(F)F)n1 [PF-06835919]	reduces whole liver fat

Source: patent publication US12479829B2, “2-[2-methylazetidin-1-yl]-4-phenyl-6-(trifluoromethyl)-pyrimidine compounds” (Eli Lilly and Company, priority 2020, dated 2025)
